Like-named read-outs stand apart in the source and are kept apart here.
How the values were obtained:
[1] = tested on: isolated swine trachea; test: ASL layer height by synchrotron phase contrast imaging, isolated wild-type swine trachea (ex vivo)
[2] = tested on: ex vivo swine trachea preparations; test: Mucociliary clearance assay, tantalum disk movement on excised swine trachea
[3] = tested on: live wild-type swine; test: ASL layer height by synchrotron phase contrast imaging, live wild-type swine; conditions: added alone to HTS, WT swine in vivo, lesser extent than with capsaicin, FIG. 11
[4] = tested on: airway submucosal glands; test: Fluid secretion assay of airway submucosal glands (droplets under oil); conditions: WT swine, FIG. 12
Experimental: To confirm that both exemplary neuronal agonists capsaicin and menthol stimulate active fluid secretion by airway submucosal glands in WT swine, the effect of exemplary neuronal agonists menthol and capsaicin was on fluid secretion rate was measured using the secretion assay as described elsewhere^21. The mucosal layer from trachea or primary bronchus, with underlying glands, was dissected from the cartilage. A piece of tissue of about 1 cm^2 was pinned mucosal side up and mounted in a 35-mm-diameter plastic Petri dish lined with Sylgard (Dow Corning Corp). The serosal side was immersed in a bathing solution ( 1 ml volume), and the mucosa was in air. Before experimentation, the mucosal surface was gently cleaned and blotted dry with cotton swabs and further dried with a stream of air, after water-saturated mineral oil was placed on the surface.

[5] = ex vivo wild-type trachea, HTS 7% w/v NaCl, 18 min

O=C(O)c1ccc(/C=C2\SC(=S)N(c3cccc(C(F)(F)F)c3)C2=O)cc1 [CFTRinh172]
effect on HTS-triggered ASL secretion, time course ([1]; wild-type swine trachea preparations ex vivo, FIG. 8): decreases the effect of HTS on ASL secretion

C=C(C)[C@@H]1CC[C@@H](C)C[C@H]1O [(−)-isopulegol, (1R,2S,5R)-2-Isopropenyl-5-methylcyclohexanol]
duration of HTS-triggered mucociliary clearance ([2]; wild-type swine ex vivo, added to HTS, measured at 0, 90 and 150 min, FIG. 15): extended the duration of HTS-triggered mucociliary clearance

N=C(N)NC(=O)c1nc(Cl)c(N)nc1N [amiloride]
effect on HTS-triggered ASL layer height increase [1, 5]: did not affect HTS treatment

Ic1ccccc1CN[C@@H]1C2CCN(CC2)[C@@H]1C(c1ccccc1)c1ccccc1 [L-703606]
effect on HTS-triggered ASL layer height increase [1, 5]: significantly reduced
effect on ASL layer height in ITS-treated preparations ([1]; ex vivo wild-type trachea, ITS 0.9% w/v NaCl, 18 min): had no effect
effect on response to HTS treatment in preparations incubated with CFTRinh172 ([1]; ex vivo, CFTRinh172 100 μM (model of airways without CFTR function), 18 min): unaffected

CN1[C@@H]2CC[C@H]1C[C@@H](OC(=O)C(CO)c1ccccc1)C2 (stereo partly shown) [atropine]
effect on ASL layer height in ITS-treated preparations [1]: had no effect
effect on HTS-triggered ASL layer height increase [1]: reduced HTS-triggered ASL secretion
effect on ITS-treated preparations incubated with CFTRinh172 [1]: had no effect
effect on response to HTS treatment in preparations incubated with CFTRinh172 [1]: reduced the response to HTS treatment

CC1CCC(C(C)C)C(O)C1 (stereo not shown) [menthol, 5-Methyl-2-(propan-2-yl)cyclohexan-1-ol]
duration of treatment [3]: increase the intensity and duration of treatment
intensity of treatment [3]: increase the intensity and duration of treatment
ASL secretion by the submucosal glands [4]: triggers significant ASL secretion

COc1cc(CNC(=O)CCCC/C=C/C(C)C)ccc1O [capsaicin, (6E)-N-[(4-Hydroxy-3-methoxyphenyl)methyl]-8-methylnon-6-enamide]
ASL secretion by the submucosal glands [4]: triggers significant ASL secretion
HTS-triggered increase in mucociliary clearance ([2]; WT swine airways, added to HTS, FIG. 13): augmented
ITS-triggered increase in mucociliary clearance ([2]; WT swine airways, added to ITS, FIG. 13): augmented

— US20210228511A1, “NEURONAL AGONISTS AND ISOTONIC OR HYPERTONIC SALINE FOR TREATING RESPIRATORY DISEASES” (University of Saskatchewan, priority 2020, published 2021)
